Usually IC50 stands for the concentration that gives 50% inhibition. High values mean weaker potency in that assay, low ones greater potency in that assay.

Counter-ions that a name gives are not always drawn. Some results are limits rather than exact numbers.

For the assay, the system named is ΔG/SEAP/HCV E1E2. The assay is described as follows: Effect of test substance on cell infection with HCV pseudotype virus (SEAP reporter assay in HepG2 cells). The assay is classed as cell-based. The conditions noted are these: Hepatitis C virus.
In the case of `COc1cc(OC)cc(-c2nn(-c3cc(N4CC[C@H](O)C4)ccc3OC)c(=O)c3c2CCC3)c1` [Example 1-15, 4-(3,5-dimethoxy-phenyl)-2-[5-((S)-3-hydroxy-pyrrolidin-1-yl)-2-methoxy-phenyl]-2,5,6,7-tetrahydro-cyclopenta[d]pyridazin-1-one], the IC50 was 100 to 10000 nM.
On to `COc1cc(OC)cc(-c2nn(-c3cc(N4CC[C@H](O)C4)ccc3C(F)(F)F)c(=O)c3c2SCC3)c1` [Example 1-37, 7-(3,5-dimethoxy-phenyl)-5-[5-((S)-3-hydroxy-pyrrolidin-1-yl)-2-trifluoromethyl-phenyl]-3,5-dihydro-2H-thieno[2,3-d]pyridazin-4-one], for which the IC50 is under 100 nM.
The figure for `COC(=O)CCNc1ccc(C(F)(F)F)c(-n2nc(-c3cc(OC)cc(OC)c3)c3c(c2=O)NCC3)c1` [Example 47, 3-{3-[4-(3,5-dimethoxy-phenyl)-7-oxo-1,2,3,7-tetrahydro-pyrrolo[2,3-d]pyridazin-6-yl]-4-trifluoromethyl-phenylamino}-propionic acid methyl ester] is under 100 nM; for `COc1cc(OC)cc(-c2nn(-c3cc(CN(C)C)ccc3C(F)(F)F)c(=O)c3c2CCC3)c1` [Example 160, 4-(3,5-dimethoxy-phenyl)-2-(5-dimethylaminomethyl-2-trifluoromethyl-phenyl)-2,5,6,7-tetrahydro-cyclopenta[d]pyridazin-1-one hydrochloride] it is 100 to 10000 nM.
Consider `COc1cc(OC)cc(-c2nn(-c3cc(NCCC(=O)N(C)C)ccc3C(F)(F)F)c(=O)c3c2CCC3)c1` [Example 139, 3-{3-[4-(3,5-dimethoxy-phenyl)-1-oxo-1,5,6,7-tetrahydro-cyclopenta[d]pyridazin-2-yl]-4-trifluoromethyl-phenylamino}-N,N-dimethyl-propionamide], for which the IC50 is under 100 nM.
`COc1cc(C)cc(-c2nn(-c3cc(N4CC[C@@H](O)C4)ccc3C(F)(F)F)c(=O)c3c2CCC3)c1` [Example 23, 2-[5-((R)-3-hydroxy-pyrrolidin-1-yl)-2-trifluoromethyl-phenyl]-4-(3-methoxy-5-methyl-phenyl)-2,5,6,7-tetrahydro-cyclopenta[d]pyridazin-1-one] returned an IC50 of under 100 nM.
On to `O=c1c2c(c(-c3ccccc3O)nn1-c1cc(N3CC[C@H](O)C3)ccc1C(F)(F)F)CCC2` [Example 111, 4-(2-hydroxy-phenyl)-2-[5-((S)-3-hydroxy-pyrrolidin-1-yl)-2-trifluoromethyl-phenyl]-2,5,6,7-tetrahydro-cyclopenta[d]pyridazin-1-one], for which the 50% inhibitory concentration (IC50) lay in the range of 100 to 10000 nM.
The figure for `COc1cncc(-c2nn(-c3cc(N4CC[C@H](O)C4)ccc3C(F)(F)F)c(=O)c3c2CCC3)c1` [Example 45, 2-[5-((S)-3-hydroxy-pyrrolidin-1-yl)-2-trifluoromethyl-phenyl]-4-(5-methoxy-pyridin-3-yl)-2,5,6,7-tetrahydro-cyclopenta[d]pyridazin-1-one] is under 100 nM; for `COc1cc(OC)cc(-c2nn(-c3ccccc3C(F)(F)F)c(=O)c3c2CCN3)c1` [Example 32, 4-(3,5-dimethoxy-phenyl)-6-(2-trifluoromethylphenyl)-1,2,3,6-tetrahydro-pyrrolo[2,3-d]pyridazin-7-one] it is 100 to 10000 nM; for `COc1cc(OC)cc(-c2nn(-c3cc(N4CC[C@H](O)C4)ccc3C(F)(F)F)c(=O)c3c2CCN3CC(=O)NCCCCNC(C)=O)c1` [Example 44, N-(4-acetylamino-butyl)-2-{4-(3,5-dimethoxy-phenyl)-6-[5-((S)-3-hydroxy-pyrrolidin-1-yl)-2-trifluoromethyl-phenyl]-7-oxo-2,3,6,7-tetrahydro-pyrrolo[2,3-d]pyridazin-1-yl}-acetamide] it is under 100 nM.
For `CCC(O)CN1CCc2c(-c3cc(OC)cc(OC)c3)nn(-c3cc(N4CC[C@H](O)C4)ccc3C(F)(F)F)c(=O)c21` (stereo partly drawn) [Example 30, 4-(3,5-dimethoxy-phenyl)-1-(2-hydroxy-butyl)-6-[5-((S)-3-hydroxy-pyrrolidin-1-yl)-2-trifluoromethylphenyl]-1,2,3,6-tetrahydro-pyrrolo[2,3-d]pyridazin-7-one] the value was under 100 nM; for `COc1cc(OC)cc(-c2nn(-c3cc(NC4CC4)ccc3C(F)(F)F)c(=O)c3c2CCC3)c1` [Example 140, 2-(5-cyclopropylamino-2-trifluoromethyl-phenyl)-4-(3,5-dimethoxy-phenyl)-2,5,6,7-tetrahydro-cyclopenta[d]pyridazin-1-one], under 100 nM; for `O=c1c2c(c(C3=CCCCC3)nn1-c1cc(N3CC[C@H](O)C3)ccc1C(F)(F)F)CCC2` [Example 113, 4-cyclohex-1-enyl-2-[5-((S)-3-hydroxy-pyrrolidin-1-yl)-2-trifluoromethyl-phenyl]-2,5,6,7-tetrahydro-cyclopenta[d]pyridazin-1-one], 100 to 10000 nM.
Compound `CN(C)c1ccc(-c2nn(-c3cc(N4CC[C@H](O)C4)ccc3C(F)(F)F)c(=O)c3c2CCC3)cc1` [Example 112, 4-(4-dimethylamino-phenyl)-2-[5-((S)-3-hydroxy-pyrrolidin-1-yl)-2-trifluoromethyl-phenyl]-2,5,6,7-tetrahydro-cyclopenta[d]pyridazin-1-one] had a 50% inhibitory concentration (IC50) of under 100 nM.
The figure for `COc1cc(OC)cc(-c2nn(-c3cc(N4CC[C@H](O)C4)ccc3C(F)(F)F)c(=O)c3c2CCN3CC#N)c1` [Example 48, {4-(3,5-dimethoxy-phenyl)-6-[5-((S)-3-hydroxy-pyrrolidin-1-yl)-2-trifluoromethyl-phenyl]-7-oxo-2,3,6,7-tetrahydro-pyrrolo[2,3-d]pyridazin-1-yl}-acetonitrile] is under 100 nM; for `COc1cc(OC)cc(-c2nn(-c3cc(NC(C)CO)ccc3C(F)(F)F)c(=O)c3c2CCC3)c1` (stereo not shown) [Example 131, 4-(3,5-dimethoxy-phenyl)-2-[5-(2-hydroxy-1-methyl-ethylamino)-2-trifluoromethyl-phenyl]-2,5,6,7-tetrahydro-cyclopenta[d]pyridazin-1-one] it is under 100 nM.
In turn, `NC(=O)c1cccc(-c2nn(-c3cc(N4CC[C@H](O)C4)ccc3C(F)(F)F)c(=O)c3c2CCC3)c1` [Example 98, 3-{3-[5-((S)-3-hydroxy-pyrrolidin-1-yl)-2-trifluoromethyl-phenyl]-4-oxo-4,5,6,7-tetrahydro-3H-cyclopenta[d]pyridazin-1-yl}-benzamide] returned a concentration for half-maximal inhibition (IC50) of 100 to 10000 nM.
Consider `O=c1c2c(c(-c3cccs3)nn1-c1cc(N3CC[C@H](O)C3)ccc1C(F)(F)F)CCC2` [Example 1-17, 2-[5-((S)-3-hydroxy-pyrrolidin-1-yl)-2-trifluoromethylphenyl]-4-(thiophen-2-yl)-2,5,6,7-tetrahydro-cyclopenta[d]pyridazin-1-one], for which the IC50 was under 100 nM.
The figure for `COc1cc(OC)cc(-c2nn(-c3cc(F)ccc3C(F)(F)F)c(=O)c3c2CCC3)c1` [Example 1-12, 4-(3,5-dimethoxy-phenyl)-2-(5-fluoro-2-trifluoromethylphenyl)-2,5,6,7-tetrahydro-cyclopenta[d]pyridazin-1-one] is 100 to 10000 nM; for `COc1cc(OC)cc(-c2nn(-c3cc(NCCC(=O)O)ccc3C(F)(F)F)c(=O)c3c2CCC3)c1` [Example 122, 3-{3-[4-(3,5-dimethoxy-phenyl)-1-oxo-1,5,6,7-tetrahydro-cyclopenta[d]pyridazin-2-yl]-4-trifluoromethyl-phenylamino}-propionic acid] it is under 100 nM.
Take `COc1cc(C)cc(-c2nn(-c3cc(N4CC[C@H](O)C4)ccc3C(F)(F)F)c(=O)c3c2CC(C)N3)c1` (stereo partly drawn) [Example 16, 6-[5-((S)-3-hydroxy-pyrrolidin-1-yl)-2-trifluoromethyl-phenyl]-4-(3-methoxy-5-methyl-phenyl)-2-methyl-1,2,3,6-tetrahydro-pyrrolo[2,3-d]pyridazin-7-one]: the IC50 was under 100 nM.
For `CCOC(=O)N1CCc2c(-c3cc(OC)cc(OC)c3)nn(-c3cc(N4CC[C@H](O)C4)ccc3C(F)(F)F)c(=O)c21` [Example 60, 4-(3,5-dimethoxy-phenyl)-6-[5-((S)-3-hydroxy-pyrrolidin-1-yl)-2-trifluoromethyl-phenyl]-7-oxo-2,3,6,7-tetrahydro-pyrrolo[2,3-d]pyridazine-1-carboxylic acid ethyl ester] the value was under 100 nM.
For `COc1cc(OC)cc(-c2nn(-c3cc(N4CC[C@H](O)C4)ccc3C(F)(F)F)c(=O)c3c2CCN3CCN)c1` [Example 49, 1-(2-amino-ethyl)-4-(3,5-dimethoxy-phenyl)-6-[5-((S)-3-hydroxy-pyrrolidin-1-yl)-2-trifluoromethylphenyl]-1,2,3,6-tetrahydro-pyrrolo[2,3-d]pyridazin-7-one] the value was under 100 nM; for `O=c1c2c(c(-c3cccc(F)c3)nn1-c1cc(N3CC[C@H](O)C3)ccc1C(F)(F)F)CCC2` [Example 65, 4-(3-fluoro-phenyl)-2-[5-((S)-3-hydroxy-pyrrolidin-1-yl)-2-trifluoromethyl-phenyl]-2,5,6,7-tetrahydro-cyclopenta[d]pyridazin-1-one], under 100 nM.
For `COc1cc(OC)cc(-c2nn(-c3cc(NCC(=O)OC(C)(C)C)ccc3C(F)(F)F)c(=O)c3c2CCC3)c1` [Example 94, {3-[4-(3,5-dimethoxy-phenyl)-1-oxo-1,5,6,7-tetrahydro-cyclopenta[d]pyridazin-2-yl]-4-trifluoromethyl-phenylamino}-acetic acid tert-butyl ester] the value was 100 to 10000 nM; for `CCCNc1ccc(C(F)(F)F)c(-n2nc(-c3cc(OC)cc(OC)c3)c3c(c2=O)CCC3)c1` [Example 100, 4-(3,5-dimethoxy-phenyl)-2-(5-propylamino-2-trifluoromethyl-phenyl)-2,5,6,7-tetrahydro-cyclopenta[d]pyridazin-1-one], under 100 nM; for `Cc1cc(C)cc(-c2nn(-c3cc(N4CC[C@H](O)C4)ccc3C(F)(F)F)c(=O)c3c2CC(C)N3)c1` (stereo partly drawn) [Example 1-33, 4-(3,5-dimethyl-phenyl)-6-[5-((S)-3-hydroxy-pyrrolidin-1-yl)-2-trifluoromethyl-phenyl]-2-methyl-1,2,3,6-tetrahydro-pyrrolo[2,3-d]pyridazin-7-one], under 100 nM.
On to `COc1cc(OC)cc(-c2nn(-c3cc(NCC(=O)N(C)C)ccc3C(F)(F)F)c(=O)c3c2CCC3)c1` [Example 125, 2-{3-[4-(3,5-dimethoxy-phenyl)-1-oxo-1,5,6,7-tetrahydro-cyclopenta[d]pyridazin-2-yl]-4-trifluoromethyl-phenylamino}-N,N-dimethyl-acetamide], for which the IC50 is under 100 nM.

For the origin of these results see patent EP1953147A1, “HETEROCYCLIC COMPOUND AND MEDICINAL APPLICATION THEREOF” (priority 2005, dated 2007).
